Experimental data from PubChem BioAssay AID330 (DTP/NCI, 2004).
Where “and” joins values, the source holds several entries; their conditions need not be identical. Equal values may be shown once. Inconclusive results and toxic doses are left out.

Tested on: P388 leukemia ip, CD2F1 mice, survival T/C
Experiment: NCI In Vivo Anticancer Drug Screen. Data for tumor model P388 Leukemia (intraperitoneal) in CD2F1 (CDF1) mice
Conditions: endpoint: median survival time, higher = longer survival
How it was run: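 Mice carrying the transplanted tumor received test compound or vehicle. Survival was recorded in each group, and the value is the treated-group measurement divided by that of the vehicle-treated control group.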

[1] = dose: 50.0 mg/kg/injection, schedule: Q01DX009 (ip), vehicle: saline with Tween-80
[2] = dose: 100.0 mg/kg/injection, schedule: Q01DX009 (ip), vehicle: saline with Tween-80
[3] = dose: 100.0 mg/kg/injection, schedule: Q04DX003 (ip), vehicle: saline with Tween-80
[4] = dose: 200.0 mg/kg/injection, schedule: Q01DX009 (ip), vehicle: saline with Tween-80
[5] = dose: 200.0 mg/kg/injection, schedule: Q04DX003 (ip), vehicle: saline with Tween-80
[6] = dose: 60.0 mg/kg/injection, schedule: Q01DX005 (ip), vehicle: saline with Tween-80
[7] = dose: 120.0 mg/kg/injection, schedule: Q01DX005 (ip), vehicle: saline with Tween-80

Structure (SMILES): Nc1nnc2nc(CC(=O)/C=C/c3ccccc3)/c(=C/C(=O)/C=C/c3ccccc3)n12
- T/C (dose: 100.0 mg/kg/injection, schedule: Q04DX002 (ip), vehicle: saline with Tween-80): 104 % of control
- T/C (dose: 200.0 mg/kg/injection, schedule: Q04DX002 (ip), vehicle: saline with Tween-80): 107 % of control
- T/C (dose: 400.0 mg/kg/injection, schedule: Q04DX002 (ip), vehicle: saline with Tween-80): 100 % of control

Structure (SMILES): COc1ccc2oc(N(C)c3ccccc3)c(C3OC4OC(C)(C)OC4C3OC)c(=O)c2c1 (stereo unspecified)
- T/C (dose: 25.0 mg/kg/injection, schedule: Q01DX001 (ip), vehicle: Klucel (hydroxypropylcellulose) (HPC)): 97 % of control
- T/C (dose: 50.0 mg/kg/injection, schedule: Q01DX001 (ip), vehicle: Klucel (hydroxypropylcellulose) (HPC)): 105 % of control
- T/C (dose: 100.0 mg/kg/injection, schedule: Q01DX001 (ip), vehicle: Klucel (hydroxypropylcellulose) (HPC)): 109 % of control

Structure (SMILES): N#CC(C#N)=CC(C#N)C#N
- T/C (dose: 12.5 mg/kg/injection, schedule: Q01DX005 (ip), vehicle: saline): 104 % of control
- T/C (dose: 25.0 mg/kg/injection, schedule: Q01DX005 (ip), vehicle: saline): 101 % of control
- T/C (dose: 50.0 mg/kg/injection, schedule: Q01DX005 (ip), vehicle: saline): 107 % of control and 92 % of control

Structure (SMILES): NCCC(N)=O
- T/C (dose: 100.0 mg/kg/injection, schedule: Q01DX009 (ip), vehicle: saline): 100 % of control
- T/C (dose: 100.0 mg/kg/injection, schedule: Q04DX003 (ip), vehicle: saline sonified): 109 % of control
- T/C (dose: 200.0 mg/kg/injection, schedule: Q01DX009 (ip), vehicle: saline): 95 % of control
- T/C (dose: 200.0 mg/kg/injection, schedule: Q04DX003 (ip), vehicle: saline sonified): 100 % of control
- T/C (dose: 400.0 mg/kg/injection, schedule: Q01DX009 (ip), vehicle: saline): 100 % of control
- T/C (dose: 400.0 mg/kg/injection, schedule: Q04DX003 (ip), vehicle: saline sonified): 100 % of control

Structure (SMILES): CC(=O)Nc1ncn[nH]1
- T/C [1]: 100 % of control
- T/C [2]: 90 % of control
- T/C [3]: 100 % of control
- T/C [4]: 90 % of control
- T/C [5]: 90 % of control

Structure (SMILES): CCCCNC(=O)N(CC)c1ccccc1
- T/C (dose: 100.0 mg/kg/injection, schedule: Q01DX001 (ip), vehicle: saline): 109 % of control
- T/C (dose: 200.0 mg/kg/injection, schedule: Q01DX001 (ip), vehicle: saline): 113 % of control
- T/C (dose: 400.0 mg/kg/injection, schedule: Q01DX001 (ip), vehicle: saline): 109 % of control

Structure (SMILES): C/C(NN(C)C)=C(\C#N)C(=O)/C=C/c1cccs1
- T/C [6]: 105 % of control
- T/C [7]: 98 % of control
- T/C (dose: 240.0 mg/kg/injection, schedule: Q01DX005 (ip), vehicle: saline with Tween-80): 96 % of control

Structure (SMILES): COc1ccc(CN2C(=O)C(Cl)=C(Cl)C2=O)c(OC)c1
- T/C [6]: 100 % of control
- T/C [7]: 94 % of control

Structure (SMILES): O=C1C2C3CCC(O3)C2C(=O)N1CC#CCCl (stereo unspecified)
- T/C (dose: 7.5 mg/kg/injection, schedule: Q01DX005 (ip), vehicle: saline with Tween-80): 96 % of control
- T/C (dose: 15.0 mg/kg/injection, schedule: Q01DX005 (ip), vehicle: saline with Tween-80): 100 % of control

Structure (SMILES): CCOC(=O)C(Cc1c[nH]c2ccccc12)NC(=O)C1(O)C(O)C2(CC)C=CCN3CCC4(c5cc(C6(C(=O)OC)CC7CC(CC)CN(CCc8c6[nH]c6ccccc86)C7)c(OC)cc5N(C)C14)C32 (stereo unspecified)
- T/C (dose: 2.0 mg/kg/injection, schedule: Q01DX001 (ip), vehicle: saline): 99 % of control
- T/C (dose: 4.0 mg/kg/injection, schedule: Q01DX001 (ip), vehicle: saline): 118 % of control
- T/C (dose: 16.0 mg/kg/injection, schedule: Q01DX001 (ip), vehicle: saline): 169 % of control
- T/C (dose: 32.0 mg/kg/injection, schedule: Q01DX001 (ip), vehicle: saline): 179 % of control
- T/C (dose: 64.0 mg/kg/injection, schedule: Q01DX001 (ip), vehicle: saline): 178 % of control

Structure (SMILES): CN(CCN1C(=O)c2c(Cl)c(Cl)c(Cl)c(Cl)c2C1=O)c1ccccc1
- T/C (dose: 50.0 mg/kg/injection, schedule: Q01DX001 (ip), vehicle: saline with Tween-80): 95 % of control
- T/C (dose: 100.0 mg/kg/injection, schedule: Q01DX001 (ip), vehicle: saline with Tween-80): 91 % of control
- T/C (dose: 200.0 mg/kg/injection, schedule: Q01DX001 (ip), vehicle: saline with Tween-80): 88 % of control

Structure (SMILES): CSc1nc(C(N)=O)cc(=O)[nH]1
- T/C (dose: 3.12 mg/kg/injection, schedule: Q01DX009 (ip), vehicle: Klucel (hydroxypropylcellulose) (HPC)): 104 % of control
- T/C (dose: 6.25 mg/kg/injection, schedule: Q01DX009 (ip), vehicle: Klucel (hydroxypropylcellulose) (HPC)): 104 % of control
- T/C (dose: 12.5 mg/kg/injection, schedule: Q01DX009 (ip), vehicle: Klucel (hydroxypropylcellulose) (HPC)): 104 % of control and 106 % of control
- T/C (dose: 25.0 mg/kg/injection, schedule: Q01DX009 (ip), vehicle: Klucel (hydroxypropylcellulose) (HPC)): 105 % of control
- T/C (dose: 50.0 mg/kg/injection, schedule: Q01DX009 (ip), vehicle: Klucel (hydroxypropylcellulose) (HPC)): 92 % of control

Structure (SMILES): C1CN2CCOC2O1
- T/C (dose: 60.0 mg/kg/injection, schedule: Q01DX005 (ip), vehicle: saline): 100 % of control
- T/C (dose: 120.0 mg/kg/injection, schedule: Q01DX005 (ip), vehicle: saline): 101 % of control
- T/C (dose: 240.0 mg/kg/injection, schedule: Q01DX005 (ip), vehicle: saline): 99 % of control

Structure (SMILES): CC12CCC(OC3OC(CO)C(O)C(O)C3O)C=C1CCC1C2CCC2(C)C(c3ccc(=O)oc3)CCC12 (stereo unspecified)
- T/C (dose: 6.25 mg/kg/injection, schedule: Q01DX005 (ip), vehicle: Klucel (hydroxypropylcellulose) (HPC)): 95 % of control
- T/C (dose: 12.5 mg/kg/injection, schedule: Q01DX005 (ip), vehicle: Klucel (hydroxypropylcellulose) (HPC)): 98 % of control
- T/C (dose: 25.0 mg/kg/injection, schedule: Q01DX005 (ip), vehicle: Klucel (hydroxypropylcellulose) (HPC)): 101 % of control and 98 % of control

Structure (SMILES): C=C1C(=O)OC2CC3(CO3)C3CC(OC(C)=O)C(=C)C3(O)CC12 (stereo unspecified)
- T/C (dose: 8.0 mg/kg/injection, schedule: Q01DX009 (ip), vehicle: Klucel (hydroxypropylcellulose) (HPC)): 99 % of control
- T/C (dose: 16.0 mg/kg/injection, schedule: Q01DX009 (ip), vehicle: Klucel (hydroxypropylcellulose) (HPC)): 116 % of control
- T/C (dose: 32.0 mg/kg/injection, schedule: Q01DX009 (ip), vehicle: Klucel (hydroxypropylcellulose) (HPC)): 119 % of control
- T/C (dose: 64.0 mg/kg/injection, schedule: Q01DX009 (ip), vehicle: Klucel (hydroxypropylcellulose) (HPC)): 114 % of control

Structure (SMILES): CCOC(=O)c1ccc(NC(=O)NC2=NCCS2)cc1
- T/C (dose: 12.5 mg/kg/injection, schedule: Q01DX009 (ip), vehicle: distilled water + Tween-80): 96 % of control
- T/C (dose: 25.0 mg/kg/injection, schedule: Q01DX009 (ip), vehicle: distilled water + Tween-80): 93 % of control
- T/C (dose: 50.0 mg/kg/injection, schedule: Q01DX009 (ip), vehicle: distilled water + Tween-80): 93 % of control
- T/C (dose: 100.0 mg/kg/injection, schedule: Q01DX009 (ip), vehicle: distilled water + Tween-80): 96 % of control
- T/C (dose: 200.0 mg/kg/injection, schedule: Q01DX009 (ip), vehicle: distilled water + Tween-80): 87 % of control

Structure (SMILES): C=CCC(C(=O)OCCN(CC)CC)(c1ccccc1)c1ccccc1
- T/C (dose: 0.75 mg/kg/injection, schedule: Q01DX009 (ip), vehicle: saline): 100 % of control
- T/C (dose: 1.5 mg/kg/injection, schedule: Q01DX009 (ip), vehicle: saline): 94 % of control
- T/C (dose: 3.0 mg/kg/injection, schedule: Q01DX009 (ip), vehicle: saline): 100 % of control
- T/C (dose: 6.0 mg/kg/injection, schedule: Q01DX009 (ip), vehicle: saline): 103 % of control
- T/C (dose: 12.0 mg/kg/injection, schedule: Q01DX009 (ip), vehicle: saline): 100 % of control

Structure (SMILES): Cc1cnc(C#N)c(Cl)n1
- T/C [2]: 100 % of control
- T/C [3]: 110 % of control
- T/C [4]: 115 % of control
- T/C [5]: 110 % of control
- T/C (dose: 400.0 mg/kg/injection, schedule: Q04DX003 (ip), vehicle: saline with Tween-80): 100 % of control

Structure (SMILES): CSc1n[nH]c(C2CCC(=O)N2Cc2ccccc2)n1 (stereo unspecified)
- T/C (dose: 50.0 mg/kg/injection, schedule: Q01DX005 (ip), vehicle: saline with Tween-80): 103 % of control
- T/C (dose: 100.0 mg/kg/injection, schedule: Q01DX005 (ip), vehicle: saline with Tween-80): 101 % of control
- T/C (dose: 200.0 mg/kg/injection, schedule: Q01DX005 (ip), vehicle: saline with Tween-80): 100 % of control

Structure (SMILES): OC1CC(OCc2ccccc2)CC1O (stereo unspecified)
- T/C [1]: 103 % of control
- T/C [2]: 97 % of control
- T/C [4]: 103 % of control

Structure (SMILES): CC(/C=C/c1ccc2c(c1)OCO2)=N\NC(N)=S
- T/C (dose: 3.13 mg/kg/injection, schedule: Q01DX005 (ip), vehicle: saline with Tween-80): 104 % of control
- T/C (dose: 6.25 mg/kg/injection, schedule: Q01DX005 (ip), vehicle: saline with Tween-80): 112 % of control
